In patent publication US20080176923A1, “Proline Derivatives Used as Pharmaceutical Active Ingredients for the Treatment of Tumors” (priority 2003, published 2008):
Values after ≈ are worked out from the molar mass of the structure shown. Like-named read-outs stand apart in the source and are kept apart here.

How the values were obtained:
[1] = tested on: BxPC3 pancreas tumor cell line; assay: tumor cell proliferation test (EZ4U tetrazolium), BxPC3; type: cell-based; settings: for inhibition at 200 µg/mL / inhibition at 400 µg/mL / IC50: Homo sapiens; for inhibition at 200 µg/mL / inhibition at 400 µg/mL: BXPC-3, 96 h, read-out: inhibition of cellular proliferation
Protocol: (§1) The compounds of the invention were tested using the pancreas tumor cell lines MIYPaCa2 and BxPC3, the breast cancer cell lines MDA-MB-435 and BT20, as well as the colon cancer cell lines Colo205 and HT29. The cells were placed in culture medium (RPMI-1640 with 10% fetal calf serum and 4 mM glutamine) in 96-well microtiter plates to make 10,000 cells per well. The inventive components to be tested were diluted in microtiter plates according to the well-known procedure and incubated for 4 days under cell culture conditions (37° C., 5% CO2).
(§2) Following incubation, the proliferation was tested using a tetrazolium-based EZ4U kit from Biomedica (Vienna, Austria). The optical density (OD) of each well was determined by means of an ELISA Reader, and the control medium obtained was set to 100% (OD490 nm=0.5 to 1.5). The values in Table 1 are given in %, showing the inhibition of cellular proliferation, the concentration being 400 μg/ml (higher value) and 200 μg/ml (lower value).
(§3) In further tests, substances were dissolved in water, and their effect on the colon adenocarcinoma cell line Colo205 and pancreas adenocarcinoma cell line BxPC3 as targets was tested. The results obtained, in IC50 concentrations in μg/ml, are illustrated in Table 2.
(§4) Furthermore, (R)-(+)-α,α-diphenyl-2-pyrrolidinemethanol and (S)-(−)-α,α-diphenyl-2-pyrrolidinemethanol were tested. […] The results are given as IC50 (μg/ml).

[2] = tested on: Colo205 colon cancer cell line; assay: tumor cell proliferation test (EZ4U tetrazolium), Colo205; type: cell-based; settings: for inhibition at 200 µg/mL / inhibition at 400 µg/mL / IC50: Homo sapiens
Protocol: as §1, §2, §3
(§5) A proliferation test—as described above—with an initial dilution of 400 μg/ml was carried out, either alone or in combination with 400, 200 or 100 μg of CHP. The cell lines used are illustrated in Table 3. […] Frequently, the proliferation is increased, or the inhibition achieved with specific substances is lower when using combined agents. The effect of CHP alone is shown on the left in the table, below each specified cell line, for the highest concentration of CHP (400 μg/ml).
as §4

[3] = repeated oral administration to rats over 28 days, LC/MS of serum and urine; type: in vivo; settings: repeated oral administration over 28 days
Protocol: cis-4-Hydroxy-L-proline was repeatedly administered orally to rats over a period of 28 days. cis-4-Hydroxy-L-proline was analyzed in serum and urine samples using the LC/MS technique.

[4] = tested on: BT20 breast cancer cell line; assay: tumor cell proliferation test (EZ4U tetrazolium), BT20; type: cell-based; settings: Homo sapiens, BT-20, 96 h, 4 days, read-out: inhibition of cellular proliferation; for inhibition at 200 µg/mL: BT20, 200 μg/ml; for inhibition at 400 µg/mL: BT20, 400 μg/ml
Protocol: as §1, §2

[5] = tested on: SW620 colon cancer cell line; assay: tumor cell proliferation test, SW620; type: cell-based; settings: for inhibition at 400 µg/mL: Homo sapiens
Protocol: as §1, §2, §5

[6] = tested on: MIA-PaCa2 pancreas tumor cell line; assay: tumor cell proliferation test (EZ4U tetrazolium), MIA-PaCa2; type: cell-based; settings: Homo sapiens; for inhibition at 200 µg/mL / inhibition at 400 µg/mL: MIA PaCa-2, 96 h, read-out: inhibition of cellular proliferation; for IC50: MIA PaCa-2
Protocol: as §1, §2, §4

[7] = tested on: all 6 cell lines (MIA-PaCa2, Colo205, BxPC3, MDA-MB435, BT20, HT29); assay: tumor cell proliferation test, mean value for all 6 cell lines; type: cell-based; settings: read-out: inhibition, mean value±SEM for all 6 cell lines
Protocol: as §1, §2

[8] = tested on: HT29 colon cancer cell line; assay: tumor cell proliferation test (EZ4U tetrazolium), HT29; type: cell-based; settings: Homo sapiens, HT-29, 96 h, 4 days, read-out: inhibition of cellular proliferation; for inhibition at 200 µg/mL: HT29, 200 μg/ml; for inhibition at 400 µg/mL: HT29, 400 μg/ml
Protocol: as §1, §2

[9] = tested on: MDA-MB435 breast cancer cell line; assay: tumor cell proliferation test (EZ4U tetrazolium), MDA-MB435; type: cell-based; settings: Homo sapiens, MDA-MB-435, 96 h, 4 days, read-out: inhibition of cellular proliferation; for inhibition at 200 µg/mL: MDA-MB435, 200 μg/ml; for inhibition at 400 µg/mL: MDA-MB435, 400 μg/ml
Protocol: as §1, §2

[10] = tested on: T47D breast cancer cell line; assay: tumor cell proliferation test, T47D; type: cell-based; settings: for inhibition at 400 µg/mL / IC50: Homo sapiens
Protocol: as §1, §2, §5, §4

[11] = tested on: Pana -1 pancreas cancer; assay: tumor cell proliferation test, Pana -1; type: cell-based
Protocol: as §1, §2, §4

[12] = COLO 205, 96 h, read-out: inhibition of cellular proliferation
[13] = COLO 205, 96 h, Colo205, 200 μg/ml, 4 days, read-out: inhibition of cellular proliferation
[14] = COLO 205, 96 h, Colo205, 400 μg/ml, 4 days, read-out: inhibition of cellular proliferation
[15] = BXPC-3, substances dissolved in water, read-out: IC50 BxPC3
[16] = COLO 205, substances dissolved in water, read-out: IC50 Colo205

Molecule | inhibition at 200 µg/mL [4] [%] | inhibition at 400 µg/mL [4] [%] | inhibition at 200 µg/mL [8] [%] | inhibition at 400 µg/mL [8] [%] | inhibition at 200 µg/mL [9] [%] | inhibition at 400 µg/mL [9] [%] | inhibition at 200 µg/mL ([6]; MIA-PaCa2, 200 μg/ml, 4 days) [%] | inhibition at 400 µg/mL ([6]; MIA-PaCa2, 400 μg/ml, 4 days) [%] | inhibition at 200 µg/mL ([1]; BxPC3, 200 μg/ml, 4 days) [%] | inhibition at 400 µg/mL ([1]; BxPC3, 400 μg/ml, 4 days) [%] | inhibition at 400 µg/mL ([7]; 400 μg/ml) [%] | inhibition at 200 µg/mL [2, 13] [%] | inhibition at 400 µg/mL [2, 14] [%] | IC50 [1, 15] [µg/mL] | IC50 [2, 16] [µg/mL] | other results
4-hydroxy-1,1-dimethylproline isobutyl ester iodide [Substance A2-01] | – | – | – | – | – | – | – | – | – | – | – | – | – | – | – | IC50 BxPC3 ([1]; substances dissolved in water): 50 µg/mL; IC50 Colo205 ([2]; substances dissolved in water): >400 µg/mL
O=C(O)[C@@H]1C[C@H](O)CN1 [CHP, cis-4-hydroxy-L-proline, reference compound] | 6.5 | 10.6 | 1.7 | 15.7 | 19.9 | 39.2 | – | – | – | – | – | – | – | – | – | level of cis-4-hydroxy-L-proline in serum or urine [3]: rapidly dropped; isomers and metabolites in the investigated samples (biotransformation) ([3]; serum and urine): detection of isomers and metabolites; inhibition at 400 µg/mL ([5]; SW-620, CHP 400 μg/ml alone, read-out: effect of CHP alone (% inhibition of proliferation, minus sign)): 14%; inhibition at 200 µg/mL [6]: 34.5%; inhibition at 400 µg/mL [6]: 51.3%; inhibition at 200 µg/mL [1]: 27.8%; inhibition at 400 µg/mL [1]: 44.5%; IC50 ([1]; BXPC-3, read-out: IC50 BxPC3): 400 µg/mL (≈ 3050 µM); inhibition at 400 µg/mL [7]: 40 ± 10.1%; inhibition at 200 µg/mL [2, 12]: 60%; inhibition at 400 µg/mL [2, 12]: 78.2%; IC50 ([2]; COLO 205, read-out: IC50 Colo205): 90 µg/mL; inhibition at 400 µg/mL ([2]; COLO 205, read-out: effect of CHP alone (% inhibition of proliferation, minus sign)): 46%; inhibition at 400 µg/mL ([10]; read-out: effect of CHP alone (% inhibition of proliferation, minus sign)): 17.4%
OC(c1ccccc1)(c1ccccc1)[C@H]1CCCN1 [Substance 231.01, (R)-(+)-α,α-diphenyl-2-pyrrolidinemethanol] | – | – | – | – | – | – | – | – | – | – | – | – | – | – | – | IC50 [6]: 50 µg/mL (≈ 197 µM); IC50 ([1]; BXPC-3): 60 µg/mL (≈ 237 µM); IC50 ([2]; COLO 205): 45 µg/mL; IC50 [10]: 130 µg/mL; IC50 [11]: 80 µg/mL (≈ 316 µM)
OC(c1ccccc1)(c1ccccc1)[C@@H]1CCCN1 [Substance 231.02, (S)-(−)-α,α-diphenyl-2-pyrrolidinemethanol] | – | – | – | – | – | – | – | – | – | – | – | – | – | – | – | IC50 [6]: 50 µg/mL (≈ 197 µM); IC50 ([1]; BXPC-3): 50 µg/mL (≈ 197 µM); IC50 ([2]; COLO 205): 45 µg/mL; IC50 [10]: 190 µg/mL; IC50 [11]: 55 µg/mL (≈ 217 µM)
CN1CC(O)C[C@H]1C(=O)O (stereo partly drawn) [Substance A0.21, 4-hydroxy-1-methylproline] | 18.3 | 14.9 | 4.8 | 4.7 | 26.9 | 23.2 | 21.1 | 22.8 | 21.9 | 16.2 | 16.3 ± 2.7 | 21.1 | 16.3 | – | – | % inhibition of proliferation (minus signs) ([5]; A0.21 100 alone (Con)): −5.8%; % inhibition of proliferation (minus signs) ([5]; A0.21 200 alone (Con)): −6.3%; inhibition at 400 µg/mL ([5]; SW-620, A0.21 400 μg/ml alone (Con), read-out: % inhibition of proliferation (minus signs)): 5.2%; % inhibition of proliferation (minus signs) ([2]; Colo205, A0.21 100 alone (Con)): −3.5%; % inhibition of proliferation (minus signs) ([2]; Colo205, A0.21 200 alone (Con)): −4.0%; inhibition at 400 µg/mL ([2]; COLO 205, Colo205, A0.21 400 μg/ml alone (Con), read-out: % inhibition of proliferation (minus signs)): 8.2%; % inhibition of proliferation (minus signs) ([10]; A0.21 100 alone (Con)): −1.8%; % inhibition of proliferation (minus signs) ([10]; A0.21 200 alone (Con)): −1.2%; inhibition at 400 µg/mL ([10]; A0.21 400 μg/ml alone (Con), read-out: % inhibition of proliferation (minus signs)): 0.4%
CCOC(=O)C1CC(O)C[N+]1(C)C (stereo not drawn) [Substance A1-01, 4-hydroxy-1,1-dimethylproline ethyl ester iodide] | – | – | – | – | – | – | – | – | – | – | – | – | – | 70 | > 400 | –
CCOC(=O)[C@@H]1CC(O)CN1C (stereo partly drawn) [Substance A1.21, 4-hydroxy-1-methylproline ethyl ester] | 22.2 | 80.1 | 7.3 | 0.5 | 15.6 | 53.5 | 7.4 | 38.8 | 25 | 13.4 | 36.5 ± 11.4 | 23.7 | 32.7 | – | – | –
CCOC(=O)[C@@H]1CC(OC(=O)Nc2ccccc2)CN1C (stereo partly drawn) [Substance A1.23, 1-methyl-4-phenylaminocarbonyloxyproline ethyl ester] | 4.4 | 1.3 | 8.5 | 1.9 | 8.7 | 4.5 | 16 | 8.3 | 17.8 | 0 | < 8 | 17.2 | 7.3 | – | – | –
CC(C)COC(=O)C1CC(O)CN1 [Substance A2, cis-hydroxy-L-proline isobutyl ester] | – | – | – | – | – | – | – | – | – | – | – | – | – | 15 (≈ 80.1 µM) | 18 | melting point: 139 °C
CC(C)COC(=O)[C@@H]1CC(O)CN1C1CCCCC1 (stereo partly drawn) [Substance A2-03, 4-hydroxy-1-cyclohexylproline isobutyl ester] | – | – | – | – | – | – | – | – | – | – | – | – | – | 50 (≈ 186 µM) | 50 | –
Br.CC(C)COC(=O)[C@@H]1CC(O)CN1C(c1ccccc1)c1ccccc1 (stereo partly drawn) [Substance A2-04, 4-hydroxy-1-diphenylmethylproline isobutyl ester hydrobromide] | – | – | – | – | – | – | – | – | – | – | – | – | – | 12 | 6.2 | –
CC(C)COC(=O)[C@@H]1CC(O)CN1C (stereo partly drawn) [Substance A2.21, 4-hydroxy-1-methylproline isobutyl ester] | 5.2 | 3.9 | 4.1 | 1.3 | 4.5 | 3.1 | 4.5 | 23.9 | 18.2 | 4.9 | < 8 | 14.1 | 10 | – | – | –
CC(C)COC(=O)[C@@H]1CC(OC(=O)Nc2ccccc2)CN1C (stereo partly drawn) [Substance A2.23, 1-methyl-4-phenylaminocarbonyloxyproline isobutyl ester] | 0 | 0 | -5 | -5.3 | 5.5 | 8.6 | 14.2 | 0.3 | 15.4 | 2.1 | < 8 | 19.2 | 14.1 | – | – | –
CCOC(=O)C1CC(O)CN1 [Substance A-1, cis-hydroxy-L-proline ethyl ester] | – | – | – | – | – | – | – | – | – | – | – | – | – | 5 (≈ 31.4 µM) | 50 | –
